Assay results: patent US12384800B2, “Antitumoral compounds” (priority 2017, dated 2025)

Legend:
Conditions in all cases: iv Days 0, 7 and 14, compound C 3.0 mg/kg, 4-S […], 12-S […]
[1] = test system: HGC27 tumors; assay: Human gastric xenograft, tumor volume
Experimental: (§1) Female athymic nu/nu mice (Harlan Laboratories Models, S.L. Barcelona, Spain or Envigo, Spain) were utilized for all experiments. Animal were housed in individually ventilated cages Sealsafe® Plus, Techniplast S.P.A.), up to ten per cage on a 12-hour light-dark cycle at 21-23° C. and 40-60% humidity. […] Animals were acclimated for at least 5 days prior to tumor implantation with a tumor cell suspension.
HGC27 cells were maintained in vitro at 37° C. with 5% CO2 in Iscove's Modified Dulbecco's Medium (Sigma Aldrich, Co). Culture cells were passage every 3 to 5 days on reaching confluence. Each animal was subcutaneously implanted (on the right flank using 26G needle and a 1 cc syringe) at 4-6 weeks of age with 5×10^6 HGC-27 cells suspended in 0.05 mL of a solution consisting of 50% Matrigel® (Corning Incorporated Life Sciences), 50% medium without serum or antibiotics.
(§2) Treatment tolerability was assessed by monitoring body weight evolution, clinical signs of systemic toxicity, as well as evidences of local damage in the injection site.
(§3) In Xenograft Studies with Other Cell Lines: • Tumor volume was calculated using the equation (a·b^2)/2, where a: length (longest diameter) and b: width (shortest diameter) were measured in mm by using digital caliper (Fowler Sylvac, S235PAT).
(§4) Treatments producing >20% lethality and/or 20% net body weight loss were considered toxic.

[2] = test system: HT1080 tumors; assay: Human fibrosarcoma xenograft, total diameter (tumor + leg)
[3] = test system: MDA-MB-231 tumors; assay: Human breast xenograft, tumor volume
[4] = test system: A2780 tumors; assay: Human ovarian xenograft, tumor volume
[5] = test system: H460 tumors; assay: Human lung (NSCLC) xenograft, tumor volume
Experimental: as §1
H460 cells were maintained in vitro at 37° C. with 5% CO2 in Dulbecco's Modified Eagle's Medium (Sigma-Aldrich, Co). Culture cells were passaged every 3 to 5 days upon reaching confluence. Each animal was subcutaneously implanted (on the right flank using 26G needle and a 1 cc syringe) at 4-6 weeks of age with 5×10^6 H460 cells suspended in 0.05 mL of a solution consisting of 50% Matrigel® (Corning Incorporated Life Sciences) and 50% medium without serum or antibiotics.
as §2, §3, §4
Tables and figures summarize the data obtained from complete experimental groups, i.e. those groups keeping the initial number of animals, n=8-10.

COc1c(C)cc2c(c1O)[C@@H]1[C@@H]3[C@@H]4SC[C@]5(N[C@H](CN)Cc6c5[nH]c5ccccc65)C(=O)OC[C@@H](c5c6c(c(C)c(OC(C)=O)c54)OCO6)N3[C@@H](O)[C@H](C2)N1C [Compound 12-S]
Median Tumor Volume ([1]; Day 2.0): 411.9 mm^3 | Median Tumor Volume ([1]; Day 5.0): 834.1 mm^3 | Median Tumor Volume ([1]; Day 7.0): 1176.6 mm^3 | Median Tumor Volume ([1]; Day 9.0): 1531.6 mm^3 | Median Tumor Volume ([1]; Day 12.0): 2030.2 mm^3 | Total diameter (tumor + leg) ([2]; Day 2.0): 8.2 mm | Total diameter (tumor + leg) ([2]; Day 5.0): 8.6 mm | Total diameter (tumor + leg) ([2]; Day 7.0): 9.5 mm | Total diameter (tumor + leg) ([2]; Day 9.0): 10.0 mm | Total diameter (tumor + leg) ([2]; Day 12.0): 11.2 mm | Total diameter (tumor + leg) ([2]; Day 14.0): 11.7 mm | Total diameter (tumor + leg) ([2]; Day 16.0): 12.7 mm | Total diameter (tumor + leg) ([2]; Day 19.0): 13.5 mm | Total diameter (tumor + leg) ([2]; Day 21.0): 14.4 mm | Total diameter (tumor + leg) ([2]; Day 23.0): 16.5 mm | Median Tumor Volume ([3]; Day 2.0): 229.9 mm^3 | Median Tumor Volume ([3]; Day 5.0): 290.5 mm^3 | Median Tumor Volume ([3]; Day 7.0): 398.2 mm^3 | Median Tumor Volume ([3]; Day 9.0): 508.9 mm^3 | Median Tumor Volume ([3]; Day 12.0): 602.5 mm^3 | Median Tumor Volume ([3]; Day 14.0): 751.0 mm^3 | Median Tumor Volume ([3]; Day 16.0): 977.7 mm^3 | Median Tumor Volume ([3]; Day 19.0): 1252.6 mm^3 | Median Tumor Volume ([3]; Day 21.0): 1560.7 mm^3 | Median Tumor Volume ([3]; Day 23.0): 2005.9 mm^3 | Median Tumor Volume ([3]; Day 26.0): 2066.2 mm^3 | Median Tumor Volume ([4]; Day 2.0): 262.1 mm^3 | Median Tumor Volume ([4]; Day 5.0): 628.6 mm^3 | Median Tumor Volume ([4]; Day 7.0): 976.3 mm^3 | Median Tumor Volume ([4]; Day 9.0): 1387.5 mm^3 | Median Tumor Volume ([4]; Day 12.0): 1666.0 mm^3 | Median Tumor Volume ([5]; Day 2.0): 460.5 mm^3 | Median Tumor Volume ([5]; Day 5.0): 922.4 mm^3 | Median Tumor Volume ([5]; Day 7.0): 1252.1 mm^3 | Median Tumor Volume ([5]; Day 9.0): 1409.4 mm^3 | Median Tumor Volume ([5]; Day 12.0): 1531.7 mm^3
